ChEMBL document CHEMBL1201862, “PubChem BioAssay data set” (2004)
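In this assay, cells in 96-well plates receive the compound at five concentrations for 48 hours. Endpoints are linearly interpolated between the surrounding concentrations. At the GI50, growth is halved.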 Calls of active or inactive are those of the source. No stated cut-off is given here; in the data, active = GI50 up to about 1.1 µM and inactive = higher.

How the values were obtained:
Assay in all cases: DTP human tumour cell line panel, 48 h
A549 = tested on: A549
CAKI-1 = tested on: CAKI-1
HCT-15 = tested on: HCT-15
HOP-62 = tested on: HOP-62
LOX IMVI = tested on: LOX IMVI
OVCAR-8 = tested on: OVCAR-8
RPMI-8226 = tested on: RPMI-8226
RXF 393 = tested on: RXF 393
SF-295 = tested on: SF-295
SF-539 = tested on: SF-539
SR = tested on: SR
UACC-62 = tested on: UACC-62
UO-31 = tested on: UO-31
HOP-92 = tested on: HOP-92
NCI-H522 = tested on: NCI-H522

Compound	GI50 (A549)	GI50 (CAKI-1)	GI50 (HCT-15) [µM]	GI50 (HOP-62)	GI50 (LOX IMVI)	GI50 (OVCAR-8)	GI50 (RPMI-8226)	GI50 (RXF 393)	GI50 (SF-295)	GI50 (SF-539)	GI50 (SR)	GI50 (UACC-62)	GI50 (UO-31)	GI50 (HOP-92)	GI50 (NCI-H522)
Nc1ncnc(NC2C=C(CO)C(O)C2O)c1[N+](=O)[O-] (stereo not drawn)	> 100 µM (inactive)	> 100 µM (inactive)	42.9	> 100 µM (inactive)	> 100 µM (inactive)	> 100 µM (inactive)	> 100 µM (inactive)	> 100 µM (inactive)	> 100 µM (inactive)	> 100 µM (inactive)	> 100 µM (inactive)	> 100 µM (inactive)	> 100 µM (inactive)		
O=C(OC1CC(n2cc(F)c(=O)[nH]c2=O)OC1CSC(=O)c1ccccc1)c1ccccc1 (stereo not drawn)	29.2 µM (inactive)		34.2	51.3 µM (inactive)	50.9 µM (inactive)	34.8 µM (inactive)	22.5 µM (inactive)	27.3 µM (inactive)	33.7 µM (inactive)	36.5 µM (inactive)		36.4 µM (inactive)	38.8 µM (inactive)	22.9 µM (inactive)	19.5 µM (inactive)
Nc1nc(CCC(=O)Nc2cccc(C(F)(F)F)c2)cc(-c2ccc3ccccc3c2)n1	> 100 µM (inactive)	> 100 µM (inactive)	> 100	> 100 µM (inactive)		> 100 µM (inactive)	> 100 µM (inactive)	> 100 µM (inactive)	> 100 µM (inactive)	> 100 µM (inactive)	> 100 µM (inactive)	> 100 µM (inactive)	> 100 µM (inactive)	> 100 µM (inactive)	> 100 µM (inactive)
COC1CCC(OC)C(C2(C3CC(OC)CCC3OC)OC(=O)c3ccccc32)C1 (stereo not drawn)	> 100 µM (inactive)	> 100 µM (inactive)	37	> 100 µM (inactive)		> 100 µM (inactive)	19.8 µM (inactive)	> 100 µM (inactive)	82.2 µM (inactive)	> 100 µM (inactive)	9.16 µM (inactive)	94.8 µM (inactive)	70.3 µM (inactive)	> 100 µM (inactive)	6.85 µM (inactive)
COC1(OC)CCC2C1C1CCC(OC)(OC)C21 (stereo not drawn)	> 50 µM (inactive)	> 50 µM (inactive)	> 50	> 50 µM (inactive)		> 50 µM (inactive)	> 50 µM (inactive)	> 50 µM (inactive)	> 50 µM (inactive)	> 50 µM (inactive)		> 50 µM (inactive)	> 50 µM (inactive)	> 50 µM (inactive)	> 50 µM (inactive)
CC(C)CCC[C@@H](C)C1CCC2[C@@H]3CC=C4C[C@@H](OC(=O)CCC(=O)NCC[N+](C)(C)CCCS(=O)(=O)[O-])CC[C@]4(C)C3CC[C@@]21C (stereo partly drawn)	17.6 µM (inactive)	40.7 µM (inactive)	15.4	17.6 µM (inactive)	17.2 µM (inactive)	18.6 µM (inactive)	20 µM (inactive)	11.3 µM (inactive)	17 µM (inactive)	16.7 µM (inactive)		26.3 µM (inactive)	41 µM (inactive)		26.2 µM (inactive)
CC(=O)OCCOCNC(=S)N/N=C(\C)c1cnccn1	24.5 µM (inactive)		22.1	27.4 µM (inactive)	57.1 µM (inactive)	30.1 µM (inactive)	42.4 µM (inactive)	23.2 µM (inactive)	36.3 µM (inactive)	29.8 µM (inactive)	18.4 µM (inactive)	13.5 µM (inactive)	18.9 µM (inactive)		25.2 µM (inactive)
CC(C)C(/N=C1\CC2CCC1(C(=O)Nc1ccccc1O)C2(C)C)c1ccccc1 (stereo not drawn)	> 10 µM (inactive)	> 10 µM (inactive)	> 10	> 10 µM (inactive)	> 10 µM (inactive)	> 10 µM (inactive)	5.11 µM (inactive)		> 10 µM (inactive)	> 10 µM (inactive)	> 10 µM (inactive)	> 10 µM (inactive)	> 10 µM (inactive)	2.23 µM (inactive)	6.58 µM (inactive)
CCOC(=O)C1S/C(=N\c2cccc(Cl)c2C)N=C1C (stereo not drawn)	21.9 µM (inactive)		> 10	80 µM (inactive)	18.1 µM (inactive)	21.3 µM (inactive)	22 µM (inactive)	21.7 µM (inactive)	18.8 µM (inactive)	25.6 µM (inactive)	24.7 µM (inactive)		37.4 µM (inactive)	15.1 µM (inactive)	18.8 µM (inactive)
CC12CCC(=O)N1c1cc([N+](=O)[O-])ccc1N2 (stereo not drawn)	> 100 µM (inactive)		> 100	> 100 µM (inactive)	> 100 µM (inactive)	> 100 µM (inactive)	> 100 µM (inactive)	> 100 µM (inactive)	> 100 µM (inactive)	> 100 µM (inactive)	76 µM (inactive)	> 100 µM (inactive)	> 100 µM (inactive)		> 100 µM (inactive)
